± gives the standard deviation of the averaged measurements.
Columns and labels:
SW620 = assay: cell viability relative to lowest-dose well (resazurin, 96 h); higher = more viable; details: RPMI + 10% FBS
Outline: (§1)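 HCT116 (500 cells/well) or SW620 (1,000 cells/well) cells were seeded in 50 µl RPMI with 10% FBS plus a metabolite supplement in 384-well plates. Compounds were dispensed from 10 mM DMSO stocks as dilution series, and plates were incubated 96 h at 37 °C, 5% CO2. Viability was read as resazurin (10 µg ml^−1) conversion to resorufin after 5 h, by fluorescence at 595 nm. Values are percent of the lowest-dose well, with independent replicate cultures. Viability was read by resazurin-to-resorufin conversion and normalised to the lowest-dose vehicle well (=100%).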

HCT116 = assay: cell viability relative to lowest-dose well (resazurin, 96 h); higher = more viable; details: RPMI + 10% FBS
Outline: as §1, with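 “cultures.” for “cultures. Viability was read by resazurin-to-resorufin conversion and normalised to the lowest-dose vehicle well (=100%).”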

PA-TU-8988T = assay: EC50 for viability (resazurin, 96 h); details: DMEM+GlutaMAX (5% dFBS, 1% P/S)

Cc1c(N2CCN(C)[C@@H](C)C2)ccc2c3c(c(=O)oc12)CN(C(=O)c1ccc(NS(C)(=O)=O)c(OC(F)(F)F)c1)CC3
cell viability [%], SW620
Details	0.001 µM	0.00301 µM	0.00903 µM	0.0271 µM	0.0816 µM	0.245 µM	0.737 µM	2.21 µM	6.65 µM	20 µM
metabolite supplement: 1mM sodium formate	100 ± 2.4	98.27 ± 0.76	97.8 ± 2.1	100 ± 2	101 ± 0.87	97.7 ± 3.2	95.9 ± 4	89 ± 1.1	62.4 ± 5.1	39.2 ± 3.1
metabolite supplement: 50uM thymidine	99.1 ± 2.6	97.2 ± 3.5	96 ± 5.5	99.6 ± 3.1	97.1 ± 4.2	85.4 ± 0.99	69.5 ± 2.1	61.5 ± 3.3	58.1 ± 3.9	54.3 ± 3.2
metabolite supplement: 50uM thymidine + 1mM sodium formate	99.4 ± 5	102 ± 4.1	101 ± 2.7	102 ± 3	105 ± 3.8	104 ± 2.2	100 ± 1.2	102 ± 4.7	101 ± 6.5	89.9 ± 1.1
metabolite supplement: 50uM thymidine + 250uM hypoxanthine	100 ± 1.9	102.3 ± 0.31	102 ± 1.4	104 ± 1.5	107 ± 1.5	107.8 ± 0.7	108 ± 1.3	106 ± 2.1	102 ± 2.5	88.6 ± 7.4
metabolite supplement: 250uM hypoxanthine	100 ± 3.8	96.6 ± 5.2	98.9 ± 4.9	99.5 ± 4	97.4 ± 3	99.9 ± 4	97 ± 3.2	84.7 ± 4.6	66.4 ± 4.7	44.2 ± 6
metabolite supplement: vehicle	97 ± 2.5	97.3 ± 2.9	96.4 ± 4.2	97.6 ± 1.1	95.4 ± 3.5	86.4 ± 2.3	71.13 ± 0.45	63.2 ± 2.9	60.8 ± 5.5	55 ± 4.3

O=c1[nH]cc(F)c(=O)[nH]1 [5-fluorouracil]
cell viability [%]
Details	metabolite supplement: 50uM thymidine	metabolite supplement: 50uM thymidine + 250uM hypoxanthine	metabolite supplement: 250uM hypoxanthine	metabolite supplement: vehicle
HCT116, 0.0001 M	4.77 ± 0.15	5.93 ± 1.4	4.9 ± 0.72	4.53 ± 0.59
HCT116, 0.01 µM	98.1 ± 2	106 ± 8	100 ± 1.4	102 ± 5.7
HCT116, 0.0278 µM	96.2 ± 1.9	104 ± 10	96.9 ± 4.5	102 ± 6.5
HCT116, 0.0774 µM	96.3 ± 2.9	105 ± 9.9	97.3 ± 2.1	101 ± 5.8
HCT116, 0.215 µM	97.9 ± 3.3	106 ± 10	96.8 ± 2.1	99.6 ± 3.5
HCT116, 0.599 µM	91.9 ± 1.7	103 ± 13	90.6 ± 1.6	94.6 ± 4.9
HCT116, 1.67 µM	63.7 ± 4.2	84 ± 6.1	78.4 ± 4.6	65 ± 3.9
HCT116, 4.64 µM	24.6 ± 4.1	39.7 ± 12	33.2 ± 7.9	22.9 ± 3.1
HCT116, 12.9 µM	11.8 ± 1.5	15.7 ± 3.2	13 ± 2.3	11.1 ± 1.5
HCT116, 35.9 µM	6.83 ± 0.49	8.5 ± 1.8	7.4 ± 1.1	6.67 ± 0.67
SW620, 0.0001 M	6.17 ± 2	8.1 ± 2	8.23 ± 1.1	7.07 ± 1.6
SW620, 0.001 µM	100	100	100	100
SW620, 0.01 µM	103 ± 1.4	99.7 ± 6.2	103 ± 7.5	104 ± 6.5
SW620, 0.0278 µM	99.6 ± 8.1	99.4 ± 5.3	102 ± 4.7	101 ± 4.7
SW620, 0.0774 µM	97.9 ± 8.6	101 ± 6.5	98 ± 4.4	102 ± 2.7
SW620, 0.215 µM	94.8 ± 7.6	99.9 ± 5	99.2 ± 3.9	100 ± 5.6
SW620, 0.599 µM	93.3 ± 9.7	97.1 ± 8.2	101 ± 3.2	99.9 ± 3.1
SW620, 1.67 µM	77.5 ± 11	87.9 ± 9.5	92 ± 6	84.1 ± 7.5
SW620, 4.64 µM	52.2 ± 12	65.6 ± 10	66.7 ± 5	56.8 ± 10
SW620, 12.9 µM	26.5 ± 8.4	37 ± 7.4	38.5 ± 5.5	30.8 ± 7.9
SW620, 35.9 µM	11.9 ± 4.2	16 ± 4	16.8 ± 2.9	13.2 ± 4.2

Cc1[nH]nc2c1C(c1cc(CO)cc(-c3ccccc3)c1)(C(C)C)C(C#N)=C(N)O2 (centres undefined) [SHIN1]
cell viability [%], SW620
Details	metabolite supplement: 1mM sodium formate	metabolite supplement: 50uM thymidine	metabolite supplement: 50uM thymidine + 1mM sodium formate	metabolite supplement: 50uM thymidine + 250uM hypoxanthine	metabolite supplement: 250uM hypoxanthine	metabolite supplement: vehicle
0.001 µM	100	100	100	100	100	100
0.01 µM	99.57 ± 0.81	98.9 ± 3.2	102 ± 4.5	103 ± 6.6	102 ± 2.9	100 ± 3.3
0.0233 µM	98.7 ± 2.5	99.2 ± 3.3	102 ± 5.4	103 ± 6.7	96.7 ± 3.4	95 ± 4
0.0541 µM	98.5 ± 1.8	102 ± 4.5	104 ± 3.7	103 ± 6.3	101 ± 1.5	98.63 ± 0.57
0.126 µM	97.4 ± 3	102 ± 4.4	104 ± 4.7	103 ± 3.7	101 ± 1.7	97.1 ± 4
0.293 µM	96.93 ± 0.47	99.6 ± 2.2	101 ± 4.7	105 ± 6.2	98.8 ± 5.2	95 ± 4.8
0.682 µM	95.3 ± 1.8	96 ± 5.7	103 ± 3.1	104 ± 5.8	98.8 ± 3.3	88.6 ± 5.6
1.59 µM	94.8 ± 1.8	85.5 ± 6.5	100 ± 4.4	108 ± 10	98.8 ± 5.5	82.9 ± 6.3
3.69 µM	92.3 ± 1.8	75 ± 5.8	98.1 ± 5.1	104 ± 3.6	96.4 ± 3	72.3 ± 4.8
8.6 µM	89.6 ± 0.95	69.3 ± 4.3	95.2 ± 3.3	102 ± 7.9	93.9 ± 4.7	68 ± 2.6
20 µM	78.2 ± 8.7	66.5 ± 6.1	83.8 ± 6.6	90.8 ± 7.1	84.8 ± 11	66 ± 3.5

Nc1nc(N)c(CC(=O)Nc2cnc(C(=O)N[C@@H](CCC(=O)O)C(=O)O)c(F)c2)c(=O)[nH]1 [TH9619]
Details	EC50 for viability [µM]
PA-TU-8988T, metabolite supplement: Thymidine	0.0295

CN(Cc1cnc2nc(N)nc(N)c2n1)c1ccc(C(=O)N[C@@H](CCC(=O)O)C(=O)O)cc1 [methotrexate]
cell viability [%]
Details	0.001 µM	0.00278 µM	0.00774 µM	0.0215 µM	0.0599 µM	0.167 µM	0.464 µM	1.29 µM	3.59 µM	10 µM
HCT116, metabolite supplement: 50uM thymidine	96.3 ± 2.5	96.8 ± 5.7	91.8 ± 3.4	36.4 ± 3.6	31.6 ± 4.3	31.9 ± 4.9	31.5 ± 4.5	31.6 ± 4.6	31.3 ± 3.7	31.5 ± 4.2
HCT116, metabolite supplement: 50uM thymidine + 250uM hypoxanthine	98.1 ± 1.4	101 ± 3.4	101 ± 3.3	104 ± 7.9	107 ± 4	109 ± 1.7	107 ± 3.9	106 ± 5.6	105 ± 4	98.1 ± 4.1
HCT116, metabolite supplement: 250uM hypoxanthine	97.7 ± 0.92	97.5 ± 2.2	99.5 ± 2.5	43.6 ± 13	18.9 ± 5.6	16.9 ± 4.3	16.7 ± 4.5	16.5 ± 4.1	16 ± 4	15.3 ± 3.3
HCT116, metabolite supplement: vehicle	99.2 ± 1.1	96.37 ± 0.23	66 ± 6.6	31.4 ± 4.3	19.1 ± 4.3	17.6 ± 3.9	16.8 ± 3.2	16.4 ± 3.4	16.2 ± 2.8	16.4 ± 2.2
SW620, metabolite supplement: 50uM thymidine	96.3 ± 4	95 ± 7.7	76.7 ± 16	42.2 ± 12	34.3 ± 11	34.8 ± 9.7	33.1 ± 11	32.6 ± 10	30.9 ± 11	30.5 ± 11
SW620, metabolite supplement: 50uM thymidine + 250uM hypoxanthine	95.7 ± 5.2	94.5 ± 5.3	93.4 ± 7.8	97.4 ± 6.6	90.2 ± 11	96.4 ± 8.1	94.7 ± 8.8	87.5 ± 18	83.6 ± 16	83.6 ± 16
SW620, metabolite supplement: 250uM hypoxanthine	98.8 ± 6.7	99.5 ± 3.2	96.2 ± 4.7	75.1 ± 2.8	32.8 ± 7.5	28 ± 2.8	28.3 ± 3.3	28.4 ± 2.6	29.6 ± 0.61	29.5 ± 1.9
SW620, metabolite supplement: vehicle	98 ± 2.8	96.3 ± 3.9	79.3 ± 6.6	60.4 ± 4.5	33.7 ± 6.8	26.9 ± 1.6	27 ± 1.2	26.4 ± 1.5	28.3 ± 1.5	29.3 ± 1.6

PA-TU-8988T
Details	EC50 for viability [µM]
metabolite supplement: Hypoxanthine	0.237
metabolite supplement: Sodium Formate	0.0855
metabolite supplement: Thymidine	0.05
